Like-named read-outs stand apart in the source and are kept apart here.
Experiments:
[1] = Dynamic vapor sorption (DVS), gravimetric moisture sorption; format: physicochemical; conditions: at 80% Relative Humidity, 25° C.
Experimental: Dynamic Vapor Sorption (DVS) were collected conducted using an SMS DVS Advantage 1 system. For each sample analyzed approximately 10 mg of material was transferred into the DVS instrument and recorded the weight change with respect to the atmospheric humidity at 25° C. using the following parameters: Equilibrium dm/dt: 0.01%/min, (for min: 10 min and max: 180 min); drying setting were 0% RH for 120 min; RH (%) measurement step at 10% and RH (%) measurement step scope of 0-90-0%.

[2] = format: physicochemical; conditions: 1 w
Experimental: For each salt, approximately 5 mg compound was added into an 8 mL glass vial with a multi-hole aluminum foil cap, and kept at 60° C., 40° C./75% RH for 1 week. […] Appearance by visual observation were recorded followed by purity assessment and XPRD data collection on the residual solids.

[3] = format: physicochemical
[4] = format: physicochemical; conditions: after solubility test

COCC1(O)CCC2(C)C(CCC3C2CCC2(C)C(C(=O)Cn4ccnc4)CCC32)C1.O=C(O)c1ccc2ccccc2c1O (centres unmarked)
gravimetric moisture sorption [1]: about 4.6 % (by weight)

COCC1(O)CCC2(C)C(CCC3C2CCC2(C)C(C(=O)Cn4ccnc4)CCC32)C1.O=C1OC(C(O)CO)C(O)=C1O (centres unmarked) [Compound 1 Ascorbate (Form A)]
gravimetric moisture sorption [1]: about 5.7 % (by weight)

COC[C@@]1(O)CC[C@@]2(C)[C@@H](CC[C@@H]3[C@@H]2CC[C@]2(C)[C@@H](C(=O)Cn4ccnc4)CC[C@@H]32)C1.O=S(=O)(O)c1ccccc1 [Compound 1 Besylate (Form A)]
gravimetric moisture sorption [1]: about 4.0 % (by weight)

COC[C@@]1(O)CC[C@@]2(C)[C@@H](CC[C@@H]3[C@@H]2CC[C@]2(C)[C@@H](C(=O)Cn4ccnc4)CC[C@@H]32)C1.O=C(O)CC(O)(CC(=O)O)C(=O)O [Compound 1 Citrate (Form A)]
Final purity ([2]; 40° C./75% RH): 99.4 | XRPD pattern ([2]; 40° C./75% RH): Form A | Final purity ([2]; 60° C.): 99.5 | XRPD pattern ([2]; 60° C.): Form A | gravimetric moisture sorption [1]: about 3.6 % (by weight) | Final purity ([3]; 1.2 million lux-hrs): 99.5 | XRPD pattern ([3]; 1.2 million lux-hrs): Form A | Final purity ([3]; Dark control): 99.5 | XRPD pattern ([3]; Dark control): Form A

COC[C@@]1(O)CC[C@@]2(C)[C@@H](CC[C@@H]3[C@@H]2CC[C@]2(C)[C@@H](C(=O)Cn4ccnc4)CC[C@@H]32)C1.O=C(O)CC(O)(CC(=O)O)C(=O)O [Compound 1 Citrate (Form B)]
Final purity ([2]; 40° C./75% RH): 98.3 | XRPD pattern ([2]; 40° C./75% RH): Form B | Final purity ([2]; 60° C.): 97.7 | XRPD pattern ([2]; 60° C.): Form B | gravimetric moisture sorption [1]: about 2.8 % (by weight) | Final purity ([3]; 1.2 million lux-hrs): 99.3 | XRPD pattern ([3]; 1.2 million lux-hrs): Form B | Final purity ([3]; Dark control): 99.1 | XRPD pattern ([3]; Dark control): Form B

COC[C@@]1(O)CC[C@@]2(C)[C@@H](CC[C@@H]3[C@@H]2CC[C@]2(C)[C@@H](C(=O)Cn4ccnc4)CC[C@@H]32)C1.O=S(=O)(O)NC1CCCCC1 [Compound 1 Cyclamate (Form A)]
gravimetric moisture sorption [1]: about 7.3 % (by weight)

COCC1(O)CCC2(C)C(CCC3C2CCC2(C)C(C(=O)Cn4ccnc4)CCC32)C1.O=CC(O)C(O)C(O)C(O)C(=O)O [Compound 1 D-Glucuronate (Form A)]
gravimetric moisture sorption [1]: about 1.4 % (by weight)

COCC1(O)CCC2(C)C(CCC3C2CCC2(C)C(C(=O)Cn4ccnc4)CCC32)C1.O=C(O)C(Cl)Cl (centres unmarked) [Compound 1 Dichloroacetate (Form A)]
gravimetric moisture sorption [1]: about 1.8 % (by weight)

CCS(=O)(=O)O.COCC1(O)CCC2(C)C(CCC3C2CCC2(C)C(C(=O)Cn4ccnc4)CCC32)C1 (centres unmarked) [Compound 1 Ethanesulfonate (Form A)]
gravimetric moisture sorption [1]: about 1.4 % (by weight)

COCC1(O)CCC2(C)C(CCC3C2CCC2(C)C(C(=O)Cn4ccnc4)CCC32)C1.O=C(O)c1cc(O)ccc1O (centres unmarked) [Compound 1 Gentisate (Form A)]
gravimetric moisture sorption [1]: about 3.1 % (by weight)

COCC1(O)CCC2(C)C(CCC3C2CCC2(C)C(C(=O)Cn4ccnc4)CCC32)C1.Cl (centres unmarked) [Compound 1 Hydrochloride (Form A)]
gravimetric moisture sorption [1]: about 3.6 % (by weight)

COC(=O)c1ccc2c(c1)NC(=O)/C2=C(\Nc1ccc(N(C)C(=O)CN2CCN(C)CC2)cc1)c1ccccc1.Cl [Compound 1 Hydrochloride (Form B)]
gravimetric moisture sorption [1]: about 2.9 % (by weight)

COC(=O)c1ccc2c(c1)NC(=O)/C2=C(\Nc1ccc(N(C)C(=O)CN2CCN(C)CC2)cc1)c1ccccc1.Cl [Compound 1 Hydrochloride (Form C)]
gravimetric moisture sorption [1]: about 0.7 % (by weight)

COC[C@@]1(O)CC[C@@]2(C)[C@@H](CC[C@@H]3[C@@H]2CC[C@]2(C)[C@@H](C(=O)Cn4ccnc4)CC[C@@H]32)C1.O=S(=O)(O)CCO [Compound 1 Isethionate (Form A)]
gravimetric moisture sorption [1]: about 4.9 % (by weight)

COC[C@@]1(O)CC[C@@]2(C)[C@@H](CC[C@@H]3[C@@H]2CC[C@]2(C)[C@@H](C(=O)Cn4ccnc4)CC[C@@H]32)C1.O=C(O)C(O)C(O)C(=O)O [Compound 1 L(+)-Tartrate (Form A)]
gravimetric moisture sorption [1]: about 1.6 % (by weight)

COCC1(O)CCC2(C)C(CCC3C2CCC2(C)C(C(=O)Cn4ccnc4)CCC32)C1.O=C(O)C(O)C(O)C(=O)O (stereo not drawn) [Compound 1 L(+)-Tartrate (Form B)]
gravimetric moisture sorption [1]: about 1.7 % (by weight)

COCC1(O)CCC2(C)C(CCC3C2CCC2(C)C(C(=O)Cn4ccnc4)CCC32)C1.O=C(O)CC(O)C(=O)O [Compound 1 L-Malate (Form A)]
gravimetric moisture sorption [1]: about 2.0 % (by weight)

COCC1(O)CCC2(C)C(CCC3C2CCC2(C)C(C(=O)Cn4ccnc4)CCC32)C1.O=C(O)CC(O)C(=O)O [Compound 1 L-Malate (Form B)]
gravimetric moisture sorption [1]: about 3.5 % (by weight)

COC(=O)c1ccc2c(c1)NC(=O)/C2=C(\Nc1ccc(N(C)C(=O)CN2CCN(C)CC2)cc1)c1ccccc1.CS(=O)(=O)O [Compound 1 Mesylate (Form A)]
gravimetric moisture sorption [1]: about 3.4 % (by weight)

COC[C@@]1(O)CC[C@@]2(C)[C@@H](CC[C@@H]3[C@@H]2CC[C@]2(C)[C@@H](C(=O)Cn4ccnc4)CC[C@@H]32)C1.O=S(=O)(O)c1ccc2ccccc2c1 [Compound 1 Napsylate (Form A)]
gravimetric moisture sorption [1]: about 3.9 % (by weight)

COCC1(O)CCC2(C)C(CCC3C2CCC2(C)C(C(=O)Cn4ccnc4)CCC32)C1.Nc1ccc(C(=O)O)c(O)c1 (centres unmarked) [Compound 1 P-Aminosalicylate (Form A)]
gravimetric moisture sorption [1]: about 4.0 % (by weight)

COCC1(O)CCC2(C)C(CCC3C2CCC2(C)C(C(=O)Cn4ccnc4)CCC32)C1.O=P(O)(O)O (centres unmarked) [Compound 1 Phosphate (Form A)]
gravimetric moisture sorption [1]: about 2.1 % (by weight)

COC[C@@]1(O)CC[C@@]2(C)[C@@H](CC[C@@H]3[C@@H]2CC[C@]2(C)[C@@H](C(=O)Cn4ccnc4)CC[C@@H]32)C1.O=S(=O)(O)O [Compound 1 Sulfate (Form A)]
gravimetric moisture sorption [1]: about 6.2 % (by weight)

COCC1(O)CCC2(C)C(CCC3C2CCC2(C)C(C(=O)Cn4ccnc4)CCC32)C1.Cc1ccc(S(=O)(=O)O)cc1 (centres unmarked) [Compound 1 Tosylate (Form A)]
gravimetric moisture sorption [1]: about 1.5 % (by weight)

COCC1(O)CCC2(C)C(CCC3C2CCC2(C)C(C(=O)Cn4ccnc4)CCC32)C1.CS(=O)(=O)O (centres unmarked) [Mesylate (Form A)]
Final purity ([2]; 40° C./75% RH): 99.4 | XRPD patterns ([2]; 40° C./75% RH): Form D | Final purity ([2]; 60° C.): 99.4 | XRPD patterns ([2]; 60° C.): Form A | Final purity ([3]; 1.2 million lux-hrs): 99.3 | XRPD patterns ([3]; 1.2 million lux-hrs): Form A | Final purity ([3]; Dark control): 99.4 | XRPD patterns ([3]; Dark control): Form A

COCC1(O)CCC2(C)C(CCC3C2CCC2(C)C(C(=O)Cn4ccnc4)CCC32)C1.O=S(=O)(O)c1ccc2ccccc2c1 (centres unmarked) [Napsylate (Form A)]
Final purity ([2]; 40° C./75% RH): 99.1 | XRPD patterns ([2]; 40° C./75% RH): Form A | Final purity ([2]; 60° C.): 99.1 | XRPD patterns ([2]; 60° C.): Form A | Final purity ([3]; 1.2 million lux-hrs): 99.0 | XRPD patterns ([3]; 1.2 million lux-hrs): Form A | Final purity ([3]; Dark control): 99.1 | XRPD patterns ([3]; Dark control): Form A

COC[C@@]1(O)CC[C@@]2(C)[C@@H](CC[C@@H]3[C@@H]2CC[C@]2(C)[C@@H](C(=O)Cn4ccnc4)CC[C@@H]32)C1.O=C(O)C(=O)O [Oxalate (Form A)]
Final purity ([2]; 40° C./75% RH): 98.4 | XRPD patterns ([2]; 40° C./75% RH): Form A | Final purity ([2]; 60° C.): 98.3 | XRPD patterns ([2]; 60° C.): Form A | Final purity ([3]; 1.2 million lux-hrs): 98.2 | XRPD patterns ([3]; 1.2 million lux-hrs): Form A | Final purity ([3]; Dark control): 98.9 | XRPD patterns ([3]; Dark control): Form A

COCC1(O)CCC2(C)C(CCC3C2CCC2(C)C(C(=O)Cn4ccnc4)CCC32)C1.Nc1ccc(C(=O)O)c(O)c1 (centres unmarked) [P-aminosalicylate (Form A)]
Final purity ([2]; 40° C./75% RH): 97.0 | XRPD patterns ([2]; 40° C./75% RH): Form A | Final purity ([2]; 60° C.): 91.5 | XRPD patterns ([2]; 60° C.): Form A | Final purity ([3]; 1.2 million lux-hrs): 95.7 | XRPD patterns ([3]; 1.2 million lux-hrs): Form A | Final purity ([3]; Dark control): 95.8 | XRPD patterns ([3]; Dark control): Form A

COC[C@@]1(O)CC[C@@]2(C)[C@@H](CC[C@@H]3[C@@H]2CC[C@]2(C)[C@@H](C(=O)Cn4ccnc4)CC[C@@H]32)C1.O=P(O)(O)O [Phosphate (Form A)]
Final purity ([2]; 40° C./75% RH): 99.2 | XRPD patterns ([2]; 40° C./75% RH): Form A | Final purity ([2]; 60° C.): 99.2 | XRPD patterns ([2]; 60° C.): Form A | Final purity ([3]; 1.2 million lux-hrs): 98.9 | XRPD patterns ([3]; 1.2 million lux-hrs): Form A | Final purity ([3]; Dark control): 99.2 | XRPD patterns ([3]; Dark control): Form A

COC[C@@]1(O)CC[C@@]2(C)[C@@H](CC[C@@H]3[C@@H]2CC[C@]2(C)[C@@H](C(=O)Cn4ccnc4)CC[C@@H]32)C1.O=S(=O)(O)O [Sulfate (Form A)]
Final purity ([2]; 40° C./75% RH): 97.5 | XRPD patterns ([2]; 40° C./75% RH): Form A | Final purity ([2]; 60° C.): 96.2 | XRPD patterns ([2]; 60° C.): Form A | Final purity ([3]; 1.2 million lux-hrs): 97.1 | XRPD patterns ([3]; 1.2 million lux-hrs): Form A | Final purity ([3]; Dark control): 97.6 | XRPD patterns ([3]; Dark control): Form A

COCC1(O)CCC2(C)C(CCC3C2CCC2(C)C(C(=O)Cn4ccnc4)CCC32)C1.Cc1ccc(S(=O)(=O)O)cc1 (centres unmarked) [Tosylate (Form A)]
Final purity ([2]; 40° C./75% RH): 99.5 | Final purity ([2]; 60° C.): 99.5 | XRPD patterns ([2]; 60° C.): Form A | Final purity ([3]; 1.2 million lux-hrs): 99.0 | XRPD patterns ([3]; 1.2 million lux-hrs): Form A | Final purity ([3]; Dark control): 99.5 | XRPD patterns ([3]; Dark control): Form A

COCC1(O)CCC2(C)C(CCC3C2CCC2(C)C(C(=O)Cn4ccnc4)CCC32)C1.Nc1ccc(C(=O)O)c(O)c1 (centres unmarked) [p-Aminosalicylate (Form A)]
Final pH (FaSSIF) ([4]; FaSSIF (original pH = 6.51)): 5.12 | Final pH (FeSSIF) ([4]; FeSSIF (original pH = 4.99)): 5.06 | Final pH (SGF) ([4]; SGF (original pH = 1.82)): 3.73

Source: US10927141B2 (priority 2018, dated 2021)
